Assay results reported in patent US20090018157A1, “Chemical compounds” (priority 2003, published 2009).

Assays:
[1] = Plasma levels following oral administration to rats; assay type: in vivo; conditions: rat, normalised dose of 1 mg of compound per kilogram of rat body weight
Method: Planetary Milled compounds [15 mins, 500 rpm, 5 Zirconium Balls, in a Puluerisette 7 Mill (Glen Creston Ltd, Stanmore, Middlesex, UK)] were suspended in 0.5% HPMC Tween and dosed to High Fat Fed (Research Diets, D12451, ad lib feeding 14 days) Female Alderley Park Zucker or Alderley Park Wistar rats at rate of 5 mls/kg, at doses between 0.3 and 10 mg/kg by oral gavage.
Samples of plasma were obtained either by conscious blood sampling or terminal blood sampling as follows:
Conscious blood sampling (for compound level or blood chemistry)—Intravenous blood samples were taken from tail vein using 600 μl Starstedt Multivette (EDTA) and 22 G needle at the required time point. […]
The reconstituted samples were then analysed using high performance liquid chromatography with tandem mass spectrometry detection (HPLC-MS-MS)”. […]
The concentration of test samples was determined from the ratio of the peak height of the test sample to the peak height of the internal standard. The concentration of the test sample was calculated with reference to a standard curve relating the ratio to the concentration prepared by using known concentrations of test sample added to samples of rat plasma using (3-isopropoxy-5-benzyoxy-benzoyl)amino pyridine 3-carboxylic acid as an internal standard, treated as described above.

[2] = Estimation of plasma half-life; assay type: in vivo; conditions: rat, typically determined following intravenous administration, read-out: t½ (half life in plasma) (converted)
Source text: The plasma half-life is the time taken for the concentration of compound in the plasma to decline to half of its original value. This is typically determined following intravenous administration of the test compound, followed by measurement of the compound concentrations in plasma samples as described above. The plasma half-life is estimated from a semilogarithmic plot, plotting the log of the plasma concentration (lnCp) against sample time (t, linear). The apparent first-order elimination rate constant, k, is equal to the slope of the line, and the elimination half-life (t½) is […] (Gibaldi, M and Perrier, D, 1975 Pharmacokinetics, Marcel Dekker, New York): […]

[3] = molecular target: T1, glucokinase (GLK) (Homo sapiens, UniProt P35557); test: biochemical
T1 sequence (P35557 1-466 isoform P35557-2): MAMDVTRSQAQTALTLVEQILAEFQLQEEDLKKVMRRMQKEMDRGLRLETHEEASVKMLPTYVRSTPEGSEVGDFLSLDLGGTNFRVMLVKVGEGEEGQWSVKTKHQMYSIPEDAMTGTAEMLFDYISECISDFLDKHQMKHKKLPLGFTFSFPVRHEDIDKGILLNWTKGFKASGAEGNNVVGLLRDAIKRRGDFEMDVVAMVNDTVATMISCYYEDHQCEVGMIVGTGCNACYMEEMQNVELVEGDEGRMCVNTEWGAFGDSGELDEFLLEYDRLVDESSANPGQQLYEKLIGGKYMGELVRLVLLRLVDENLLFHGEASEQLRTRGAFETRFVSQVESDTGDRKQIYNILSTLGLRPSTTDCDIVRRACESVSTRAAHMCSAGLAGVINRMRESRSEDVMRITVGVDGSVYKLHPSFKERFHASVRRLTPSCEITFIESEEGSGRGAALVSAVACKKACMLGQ

[4] = Plasma protein binding by equilibrium dialysis; assay type: in vitro ADME; conditions: rat, 18 hours at 37° C., plasma vs isotonic phosphate buffer pH 7.4, read-out: % free in plasma
Method: The plasma protein binding of compounds was measured using the equilibrium dialysis technique (W. Lindner et al, J. Chromatography, 1996, 677, 1-28). Compound was dialysed at a concentration of 20 μM for 18 hours at 37° C. with plasma and isotonic phosphate buffer pH 7.4 (1 ml of each in the dialysis cell). A Spectrum® 20-cell equilibrium dialyser was used together with Teflon, semi-micro dialysis cells and Spectra/Por®2 membrane discs with a molecular weight cut off 12-14000 Dalton, 47 mm (supplied by PerBio Science UK Ltd, Tattenhall, Cheshire). Plasma and buffer samples are removed following dialysis and analysed using HPLCUV/MS (high performance liquid chromatography with UV and mass spec detection) to give the % free level in plasma.

## COC[C@H](C)Oc1cc(Oc2ccc3c(c2)OCO3)cc(C(=O)Nc2ccc(C(=O)O)cn2)c1 [Example 2, 6-{[(3-(1,3-benzodioxol-5-yloxy)-5-{[(1S)-1-methyl-2-(methyloxy)ethyl]oxy}phenyl)carbonyl]amino}pyridine-3-carboxylic acid]
[1]
  Peak Blood levels (including both bound and free): 2.7 µM
[2]
  half-life: 6.4 h
[3]
  EC50: 60 nM
[4]
  fraction unbound at 18 hours, 20 μM: 0.0026
